PubChem BioAssay AID330 (DTP/NCI, 2004)
Several values for one entry are separate records, joined by “and”; a condition that tells them apart may be missing. Equal values may be shown once. Inconclusive results and toxic doses are left out. How the source made its calls: active means survival T/C of 150% or more; inactive means T/C below 125% in these data.

Test system: P388 leukemia ip, CD2F1 mice, survival T/C
Test: NCI In Vivo Anticancer Drug Screen. Data for tumor model P388 Leukemia (intraperitoneal) in CD2F1 (CDF1) mice
Details: endpoint: median survival time, higher = longer survival
Summary of the method: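 Mice carrying the transplanted tumor received test compound or vehicle. Survival was recorded in each group, and the value is the treated-group measurement divided by that of the vehicle-treated control group.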

[1] = dose: 50.0 mg/kg/injection, schedule: Q01DX005 (ip), vehicle: saline with Tween-80
[2] = dose: 100.0 mg/kg/injection, schedule: Q01DX005 (ip), vehicle: saline with Tween-80
[3] = dose: 200.0 mg/kg/injection, schedule: Q01DX005 (ip), vehicle: saline with Tween-80
[4] = dose: 50.0 mg/kg/injection, schedule: Q01DX009 (ip), vehicle: saline
[5] = dose: 100.0 mg/kg/injection, schedule: Q04DX002 (ip), vehicle: saline with Tween-80
[6] = dose: 12.5 mg/kg/injection, schedule: Q01DX009 (ip), vehicle: saline with Tween-80
[7] = dose: 25.0 mg/kg/injection, schedule: Q01DX009 (ip), vehicle: saline with Tween-80
[8] = dose: 50.0 mg/kg/injection, schedule: Q01DX009 (ip), vehicle: saline with Tween-80
[9] = dose: 100.0 mg/kg/injection, schedule: Q01DX009 (ip), vehicle: saline with Tween-80

Measured: T/C

O=C1C=CC2C3C(=O)N(c4ccccc4)C(=O)C3C1N2Cc1ccccc1 (configuration not stated)
inactive: [1] 105 % of control and 110 % of control and 118 % of control | [2] 116 % of control and 117 % of control and 118 % of control | [3] 119 % of control and 120 % of control and 123 % of control | dose: 400.0 mg/kg/injection, schedule: Q01DX005 (ip), vehicle: saline with Tween-80 113 % of control and 114 % of control

Cc1ccc(S(=O)(=O)N/N=C\C(O)C(O)C(O)CO)cc1 (configuration not stated)
inactive: dose: 50.0 mg/kg/injection, schedule: Q01DX009 (ip), vehicle: Klucel (hydroxypropylcellulose) (HPC) 114 % of control | dose: 100.0 mg/kg/injection, schedule: Q01DX009 (ip), vehicle: Klucel (hydroxypropylcellulose) (HPC) 106 % of control | dose: 200.0 mg/kg/injection, schedule: Q01DX009 (ip), vehicle: Klucel (hydroxypropylcellulose) (HPC) 107 % of control | dose: 400.0 mg/kg/injection, schedule: Q01DX009 (ip), vehicle: Klucel (hydroxypropylcellulose) (HPC) 104 % of control

CC1COCCOC(=O)COCC(=O)OCCOCC(C)O1 (configuration not stated)
inactive: dose: 100.0 mg/kg/injection, schedule: Q04DX003 (ip), vehicle: Klucel (hydroxypropylcellulose) (HPC) 107 % of control | dose: 200.0 mg/kg/injection, schedule: Q04DX003 (ip), vehicle: Klucel (hydroxypropylcellulose) (HPC) 103 % of control | dose: 400.0 mg/kg/injection, schedule: Q04DX003 (ip), vehicle: Klucel (hydroxypropylcellulose) (HPC) 93 % of control

COc1ccc(/C=C/c2ccnnc2)cc1
inactive: [4] 99 % of control and 102 % of control | dose: 100.0 mg/kg/injection, schedule: Q01DX009 (ip), vehicle: saline 108 % of control | dose: 200.0 mg/kg/injection, schedule: Q01DX009 (ip), vehicle: saline 99 % of control and 94 % of control

CC(C)NC(=O)c1ccc(N/N=[N+](/C)[O-])cc1
inactive: dose: 6.25 mg/kg/injection, schedule: Q01DX005 (ip), vehicle: saline with Tween-80 97 % of control | dose: 12.5 mg/kg/injection, schedule: Q01DX005 (ip), vehicle: saline with Tween-80 99 % of control | dose: 25.0 mg/kg/injection, schedule: Q01DX005 (ip), vehicle: saline with Tween-80 98 % of control | [1] 92 % of control | [2] 102 % of control

CN(C)C1=CC=C2C(=O)c3ccccc3C2(c2ccccc2)C=C1 (configuration not stated)
inactive: [5] 89 % of control | dose: 200.0 mg/kg/injection, schedule: Q04DX002 (ip), vehicle: saline with Tween-80 88 % of control | dose: 400.0 mg/kg/injection, schedule: Q04DX002 (ip), vehicle: saline with Tween-80 89 % of control

O=S(=O)(O)CCc1nn[nH]n1
inactive: dose: 100.0 mg/kg/injection, schedule: Q01DX001 (ip), vehicle: saline 100 % of control | dose: 200.0 mg/kg/injection, schedule: Q01DX001 (ip), vehicle: saline 101 % of control | dose: 400.0 mg/kg/injection, schedule: Q01DX001 (ip), vehicle: saline 101 % of control

CCOC(=O)c1cc(=O)c2c(OC)ccc(OC)c2[nH]1
inactive: [1] 90 % of control | [2] 98 % of control | [3] 97 % of control

CC(Nc1ccc([N+](=O)[O-])c2nonc12)C(=O)O (configuration not stated)
inactive: dose: 6.25 mg/kg/injection, schedule: Q01DX009 (ip), vehicle: saline with Tween-80 108 % of control | [6] 100 % of control | [7] 111 % of control | dose: 200.0 mg/kg/injection, schedule: Q01DX009 (ip), vehicle: saline with Tween-80 86 % of control

Clc1ccc(COC(Cn2ccnc2)c2ccc(Cl)cc2Cl)c(Cl)c1 (configuration not stated)
inactive: dose: 9.37 mg/kg/injection, schedule: Q01DX009 (ip), vehicle: saline with Tween-80 107 % of control | dose: 18.75 mg/kg/injection, schedule: Q01DX005 (ip), vehicle: saline with Tween-80 99 % of control | dose: 37.5 mg/kg/injection, schedule: Q01DX005 (ip), vehicle: saline with Tween-80 106 % of control | dose: 37.5 mg/kg/injection, schedule: Q01DX009 (ip), vehicle: saline with Tween-80 104 % of control | dose: 75.0 mg/kg/injection, schedule: Q01DX005 (ip), vehicle: saline with Tween-80 108 % of control | dose: 75.0 mg/kg/injection, schedule: Q01DX009 (ip), vehicle: saline with Tween-80 112 % of control | dose: 150.0 mg/kg/injection, schedule: Q01DX005 (ip), vehicle: saline with Tween-80 110 % of control | dose: 150.0 mg/kg/injection, schedule: Q01DX009 (ip), vehicle: saline with Tween-80 107 % of control

CC(C)CC(O)C(CC(=O)Nc1ccccc1)S(=O)(=O)c1ccccc1 (configuration not stated)
inactive: [1] 100 % of control | [2] 92 % of control | [3] 86 % of control

CC(CN)c1ccccc1 (configuration not stated)
inactive: dose: 12.5 mg/kg/injection, schedule: Q01DX009 (ip), vehicle: saline 111 % of control | dose: 25.0 mg/kg/injection, schedule: Q01DX009 (ip), vehicle: saline 101 % of control | [4] 101 % of control and 103 % of control

CCS/C(C#N)=C/c1ccccc1
inactive: [8] 109 % of control | [9] 115 % of control

CCCCCCCCCCCCN(C)C
inactive: [6] 100 % of control | [7] 100 % of control | [8] 100 % of control

CC(=O)Cc1nc2ccccc2s1
inactive: dose: 25.0 mg/kg/injection, schedule: Q04DX002 (ip), vehicle: saline with Tween-80 104 % of control | dose: 50.0 mg/kg/injection, schedule: Q04DX002 (ip), vehicle: saline with Tween-80 107 % of control | [5] 102 % of control

CN(C)CCCNc1c2ccccc2nc2c1c(=O)n(C)c(=O)n2C
inactive: dose: 60.0 mg/kg/injection, schedule: Q01DX005 (ip), vehicle: saline 101 % of control | dose: 120.0 mg/kg/injection, schedule: Q01DX005 (ip), vehicle: saline 107 % of control

O=C(OC(c1ccccc1)c1ccccc1)C1CSCN1C(=O)OCc1ccccc1[N+](=O)[O-] (configuration not stated)
inactive: [1] 108 % of control | [2] 110 % of control | [3] 100 % of control

O=[N+]([O-])c1c(NC2(CO)CCCC2)ncnc1NC1(CO)CCCC1
inactive: dose: 65.5 mg/kg/injection, schedule: Q04DX003 (ip), vehicle: Klucel (hydroxypropylcellulose) (HPC) 97 % of control | dose: 131.0 mg/kg/injection, schedule: Q04DX003 (ip), vehicle: Klucel (hydroxypropylcellulose) (HPC) 105 % of control | dose: 262.0 mg/kg/injection, schedule: Q04DX003 (ip), vehicle: Klucel (hydroxypropylcellulose) (HPC) 102 % of control

C(=C1SCCCS1)c1cc2c(cc1OCc1ccccc1)OCO2
inactive: dose: 100.0 mg/kg/injection, schedule: Q01DX001 (ip), vehicle: Klucel (hydroxypropylcellulose) (HPC) 100 % of control | dose: 200.0 mg/kg/injection, schedule: Q01DX001 (ip), vehicle: Klucel (hydroxypropylcellulose) (HPC) 105 % of control | dose: 400.0 mg/kg/injection, schedule: Q01DX001 (ip), vehicle: Klucel (hydroxypropylcellulose) (HPC) 102 % of control

Cc1ccc(-c2nc3scc(C)n3n2)cc1
inactive: dose: 60.0 mg/kg/injection, schedule: Q01DX005 (ip), vehicle: Klucel (hydroxypropylcellulose) (HPC) 100 % of control | dose: 120.0 mg/kg/injection, schedule: Q01DX005 (ip), vehicle: Klucel (hydroxypropylcellulose) (HPC) 96 % of control | dose: 240.0 mg/kg/injection, schedule: Q01DX005 (ip), vehicle: Klucel (hydroxypropylcellulose) (HPC) 103 % of control

O=C(/C=C/c1cccs1)c1ccc(O)c(C(=O)O)c1
inactive: [7] 96 % of control | [8] 105 % of control | [9] 103 % of control

O=C1C(Cl)=C(Oc2ccccc2Cl)C(=O)C(Cl)=C1Oc1ccccc1Cl
inactive: dose: 3.12 mg/kg/injection, schedule: Q01DX005 (ip), vehicle: Klucel (hydroxypropylcellulose) (HPC) 91 % of control and 96 % of control | dose: 6.25 mg/kg/injection, schedule: Q01DX005 (ip), vehicle: Klucel (hydroxypropylcellulose) (HPC) 98 % of control and 92 % of control | dose: 12.5 mg/kg/injection, schedule: Q01DX005 (ip), vehicle: Klucel (hydroxypropylcellulose) (HPC) 86 % of control and 87 % of control and 97 % of control | dose: 50.0 mg/kg/injection, schedule: Q01DX005 (ip), vehicle: Klucel (hydroxypropylcellulose) (HPC) 102 % of control | dose: 100.0 mg/kg/injection, schedule: Q01DX005 (ip), vehicle: Klucel (hydroxypropylcellulose) (HPC) 99 % of control | dose: 200.0 mg/kg/injection, schedule: Q01DX005 (ip), vehicle: Klucel (hydroxypropylcellulose) (HPC) 96 % of control
